Experimental data published in patent US4207326A, “Antimicrobial quaternary pyrazole derivatives” (Cilag-Chemie A.G., priority 1979, dated 1980).
Read-outs that look alike come from different tables or passages of the source.

Tests used:
C. albicans = assay: Antimycotic activity: Minimum Inhibitory Concentration; assay type: cell-based, Candida albicans ATCC 10231; settings: for Minimum Inhibitory Concentrations: C. albicans; for MIC: Candida albicans
Procedure: (§1) The antimicrobial activity was determined by inoculation of the test microorganism into suitable growth media containing solutions of the compounds at concentrations of 100, 50, 10, 5, 1.0, 0.5 and 0.1 μg/ml. The reference antibiotics used were Gentamicin for the antibacterial tests and Amphotericin B for the antimycotic and antifungal tests. After incubation the antimicrobial activity was recorded as the Minimal Inhibitory Concentration (M.I.C.), i.e., the lowest concentration preventing macroscopically visible growth, for each test compound against each organism.
(§2) An initial solution of each formula (I) compound to be tested in sterile distilled water was prepared at a concentration of 1000 μg/ml. With appropriate dilutions using sterile distilled water, additional solutions were prepared at concentrations of 500, 100, 50, 10, 5 and 1 μg/ml.
(§3) The two species, C. albicans and C. tropicalis, were maintained on Sabouraud-Dextrose Agar (Oxoid CM41) and cultures for the preparation of the inoculum were incubated on this agar at 37° C. for 48 hours. 4.5 Ml volumes of citric acid-phosphate buffer pH 5.5 plus Yeast-Nitrogen Base (Difco 0392-15) were then inoculated from the agar cultures and incubated at 37° C. for 48 hours. 0.1 Ml aliquots of these cultures were then added to 100 ml volumes of sterile physiological saline to give the final inocula.
(§4) (b) For the tests on each of the C. albicans, C. tropicalis and C. neoformans strains and each of the test and reference compounds, a series of 8 tubes containing 4.5 ml volumes of citric acid-phosphate buffer pH 5.5 plus Yeast-Nitrogen Base (Difco 0392-15) were prepared. To 7 of these were added 0.5 ml volumes of the final solutions of the test compounds, giving final concentrations in the broths of 100, 50, 10, 5, 1.0, 0.5 and 0.1 μg/ml. To the eighth tube in each series was added 0.5 ml of the solvent used and diluted as for the preparation of the 1000 μg/ml solution of the compound. This tube was used as the growth control. The tubes were then inoculated with 0.1 ml aliquots of the inocula prepared as in "(b) Fungi" above. The tubes inoculated with the C. albicans and C. tropicalis were inoculated at 37° C. for 72 hours and the tubes inoculated with the C. neoformans straim were incubated at 30° C. for 72 hours. […] The tubes were then examined for evidence of growth as shown by turbidity of the medium and the lowest concentration of the test compound which prevented fungal growth was recorded as the Minimal Inhibitory Concentration. This test procedure was carried out on two separate days.

T. mentagrophytes = assay: Antifungal activity: Minimum Inhibitory Concentration; assay type: cell-based, Trichophyton mentagrophytes NCPF 410; settings: T. mentagrophytes, 27° C., one week; for MIC: Trichophyton mentagrophytes, read-out: Minimum Inhibitory Concentration
Procedure: as §1, §2
T. mentagrophytes NCPF 410
(§5) The A. corymbifera, A. fumigatus, S. schenkii, T. rubrum, T. mentagrophytes, M. canis and P. verrucosa strains were all maintained on Sabouraud-Dextrose Agar (Oxoid CM 41) by incubating for 14 days at 27° C. To prepare the inocula 30 ml volumes of Sabouraud-Liquid medium (Oxoid CM 147) were inoculated from the agar cultures and incubated at 27° C. until heavy uniform growth resulted. The mycelial growth was then broken up by shaking with glass beads.
(§6) 1 Ml aliquots were removed from each of the cultures for the purpose of making viable counts and the cultures were then held at 4° C. The viable counts were made by preparing serial ten-fold dilutions of the cultures in sterile physiological saline and spreading on plates of Sabouraud-Dextrose Agar (Oxoid CM 41) which were then incubated at 27° C. for 14 days. When the viable counts had confirmed that each of the inocula contained approximately 10^6 colony forming units (C.F.U.) per ml the cultures were withdrawn from the refrigerator and used as the inocula for the tests.
(§7) (c) For the tests on each of the remaining seven strains and each of the test and reference compounds, a series of 8 tubes containing 4.5 ml volumes of Sabouraud-Liquid Medium (Oxoid CM 147) were prepared. To 7 of these were added 0.5 ml volumes of the final solutions of the test compounds, giving final concentrations in the broths of 100, 50, 10, 5, 1.0, 0.5 and 0.1 μg/ml. To the eighth tube in each series was added 0.5 ml of the solvent used and diluted as for the preparation of the 500 μg/ml solution of the compound. This tube was used as a growth control. The tubes were then inoculated with 0.1 ml aliquots of the inocula prepared as in "(b) Fungi" above. The tubes were then incubated at 27° C. with continuous shaking for a period of one week. The tubes were then examined for evidence of growth as shown by the presence of mycelial growth in the medium and the lowest concentration of the test compound which prevented fungal growth was recorded as the Minimal Inhibitory Concentration. This test procedure was carried out on two separate days.

A. fumigatus = assay: as above; assay type: cell-based, Aspergillus fimigatus (A. fumigatus) NCPF 2140; settings: A. fumigatus, 27° C., one week; for MIC: Aspergillus fumigatus, read-out: Minimum Inhibitory Concentration
Procedure: as §1, §2, §5, §6, §7

C. tropicalis = assay: Antimycotic activity: Minimum Inhibitory Concentration; assay type: cell-based, Candida tropicalis NCPF 3111; settings: pH 5.5, 37° C., 72 hours; for MIC: Candida tropicalis; for Minimum Inhibitory Concentrations: C. tropicalis
Procedure: as §1, §2, §3, §4

P. aeruginosa = assay: Antibacterial activity: Minimum Inhibitory Concentration; assay type: cell-based, Pseudomonas aeruginosa ATCC 9027; settings: for MIC: Pseudomonas aeruginosa, read-out: Minimum Inhibitory Concentration
Procedure: as §1, §2
They were cultured and maintained on Tryptone Soy Agar (Oxoid CM 131), with the addition of 10% horse blood for the S. pyogenes.
To prepare the organisms as inocula for the test, slopes of this medium were streaked with the organisms and incubated at 37° C. for 24 hours. 4.5 Ml volumes of Brian-Heart Infusion Broth (Oxoid CM 225) were then inoculated with a platinum loop from the agar slope cultures and incubated for 24 hours at 37° C. The final inocula were then prepared by adding 0.1 ml aliquots of the Brain-Heart Infusion Broth cultures to 100 ml volumes of sterile physiological saline.
(a) For the test on each of the bacterial strains and each of the test and reference compounds, a series of 8 tubes containing 4.5 ml volumes of Brain-Heart Infusion Broth (Oxoid CM 225) were prepared. To 7 of these were added 0.5 ml volumes of the final solutions of the test compouns, giving final concentrations in the broths of 100, 50, 10, 5, 1.0, 0.5 and 0.1 μg/ml. To the eighth tube in each series was added 0.5 ml of the solvent used and diluted as for the preparation of the 1000 μg/ml solution of the compound. This tube was used as the growth control. The tubes were inoculated with 0.02 ml aliquots of the inocula prepared in accordance with "(a) Bacteria" above, and incubated at 37° C. for 24 hours. The tubes were then examined for evidence of bacterial growth as shown by turbidity of the medium and the lowest concentration of the test compound which prevented bacterial growth was recorded as the Minimal Inhibitory Concentration. This test procedure was carried out on two separate days.

T. rubrum = assay: Antifungal activity: Minimum Inhibitory Concentration; assay type: cell-based, Trichophyton rubrum NCPF 197; settings: T. rubrum, 27° C., one week; for MIC: Trichophyton rubrum, read-out: Minimum Inhibitory Concentration
Procedure: as §1, §2, §5, §6, §7

[1] = Day 2, pH 5.5, 37° C., 72 hours
[2] = pH 5.5, C. albicans, Day 1, pH 5.5, 37° C., 72 hours, read-out: Minimum Inhibitory Concentrations
[3] = pH 5.5, C. albicans, Day 2, pH 5.5, 37° C., 72 hours, read-out: Minimum Inhibitory Concentrations
[4] = pH 5.5, C. tropicalis, Day 1, read-out: Minimum Inhibitory Concentrations
[5] = pH 5.5, C. tropicalis, Day 2, read-out: Minimum Inhibitory Concentrations
[6] = P. aeruginosa, Day 1, 37° C., 24 hours
[7] = P. aeruginosa, Day 2, 37° C., 24 hours

Molecule | MIC (C. albicans; [2]) [mg/L] | MIC (C. albicans; [3]) [mg/L] | MIC (T. mentagrophytes; Day 1) [mg/L] | MIC (T. mentagrophytes; Day 2) [mg/L] | MIC (A. fumigatus; Day 1) [mg/L] | MIC (A. fumigatus; Day 2) [mg/L] | MIC (C. tropicalis; [4]) [mg/L] | MIC (C. tropicalis; [5]) [mg/L] | MIC (P. aeruginosa; [6]) [mg/L] | MIC (P. aeruginosa; [7]) [mg/L] | MIC (T. rubrum; Day 1) [mg/L] | MIC (T. rubrum; Day 2) [mg/L] | further results
CCCCCCCCCCCCCCCC[n+]1c(C)cc(C)n1C.Cc1ccc(S(=O)(=O)[O-])cc1 [Example 6-C, 1-hexadecyl-2,3,5-trimethylpyrazolium p-toluene sulfonate] | – | – | – | – | – | – | – | – | – | – | – | – | Minimum Inhibitory Concentrations (C. albicans; [1]): 5 µg/mL; MIC (C. albicans; pH 5.5, read-out: Minimum Inhibitory Concentrations): 5 mg/L; Minimum Inhibitory Concentration (T. mentagrophytes; Day 1): 5 µg/mL; Minimum Inhibitory Concentration (A. fumigatus; Day 2): 5 µg/mL; MIC (C. tropicalis; pH 5.5, read-out: Minimum Inhibitory Concentrations, C. tropicalis, Day 1): 5 mg/L; MIC (P. aeruginosa; 24 h): 5 mg/L; MIC (P. aeruginosa): 10 mg/L; Minimum Inhibitory Concentration (T. rubrum; Day 2): 5 µg/mL
CCCCCCCCCCCCCCCCn1ccc[n+]1C [Example 3-D, 1-hexadecyl-2-methyl-pyrazolium methosulfate] | 1 | 1 | 1 | 1 | 50 | 10 | 0.5 | 0.5 | 50 | 10 | 1 | 1 | –
CCCCCCCCCCCCCCn1ccc[n+]1C [Example 3-G, 2-methyl-1-tetradecyl-pyrazolium methosulfate] | 5 | 5 | 1 | 5 | 50 | 50 | 0.5 | 0.5 | 10 | 10 | 1 | 5 | –
2,3(5)-dimethyl-1-hexadecyl-pyrazolium methosulfate [Example 9] | – | – | – | – | – | – | – | – | – | – | – | – | Minimum Inhibitory Concentrations (C. albicans; Day 1, pH 5.5, 37° C., 72 hours): 5 µg/mL; Minimum Inhibitory Concentrations (C. albicans; [1]): 10 µg/mL; Minimum Inhibitory Concentration (T. mentagrophytes; Day 1): 5 µg/mL; Minimum Inhibitory Concentration (T. mentagrophytes; Day 2): 5 µg/mL; Minimum Inhibitory Concentration (A. fumigatus; Day 1): 5 µg/mL; Minimum Inhibitory Concentration (A. fumigatus; Day 2): 10 µg/mL; Minimum Inhibitory Concentrations (C. tropicalis; Day 1): 5 µg/mL; Minimum Inhibitory Concentrations (C. tropicalis; Day 2): 1 µg/mL; Minimum Inhibitory Concentration (P. aeruginosa; [6]): 10 µg/mL; Minimum Inhibitory Concentration (P. aeruginosa; [7]): 10 µg/mL; Minimum Inhibitory Concentration (T. rubrum; Day 1): 5 µg/mL; Minimum Inhibitory Concentration (T. rubrum; Day 2): 5 µg/mL
CCCCCCCCCCCCCCCCn1c(C)cc(C)[n+]1C [Example 2, 1-hexadecyl-2,3,5-trimethyl-pyrazolium methosulfate] | 1 | 1 | 1 | 5 | 10 | 5 | 1 | 0.5 | 10 | 5 | 5 | 5 | –
CCCCCCCCCCCCCC[n+]1c(C)cc(C)n1Cc1ccc([N+](=O)[O-])cc1.[Br-] [Example 6-D, 3,5-dimethyl-2(4-nitrobenzyl)-1-tetradecyl-pyrazolium bromide] | 10 | 5 | 10 | 10 | 50 | 50 | 5 | 5 | 100 | 50 | 10 | 10 | –
CCCCCCCCCCCC[n+]1c(C)cc(C)n1Cc1ccc(Cl)cc1Cl.[Br-] [Example 6-B, 2-(2,4-dichlorobenzyl)-3,5-dimethyl-1-dodecyl-pyrazolium bromide] | 5 | 5 | 1 | 1 | 5 | 5 | 1 | 1 | 10 | 10 | 5 | 1 | –
CCCCCCCCCCCCn1ccc[n+]1C [Example 3-E, 1-dodecyl-2-methy-pyrazolium methosulfate] | 50 | 50 | 1 | 5 | 50 | 10 | 5 | 1 | 50 | 50 | 5 | 5 | –
C=CCn1c(C)cc(C)[n+]1CCCCCCCCCCCCCCCC.[Br-] [Example 7, 2-allyl-3,5-dimethyl-1-hexadecyl-pyrazoliumbromide] | 5 | 1 | 1 | 5 | 10 | 50 | 0.5 | 0.5 | 50 | 10 | 1 | 1 | –
